Experimental data: the NIST ThermoML archive (doi:10.1016/j.jct.2014.07.001)
Numbers after ± are expanded uncertainties.

Assay: xn = mol fraction of the nth substance listed
Conditions: Drop volume

CCCC[n+]1cccc(C)c1.F[B-](F)(F)F [1-butyl-3-methylpyridinium tetrafluoroborate] + CCO
surface tension liquid-gas [mN/m]
Conditions	293.15 K	303.15 K	313.15 K	323.15 K
x1 = 0.0279	22.56 ± 0.26	21.82 ± 0.25	21.07 ± 0.25	20.3 ± 0.24
x1 = 0.0486	22.72 ± 0.26	22.04 ± 0.25	21.34 ± 0.25	20.64 ± 0.24
x1 = 0.0988	23.15 ± 0.27	22.56 ± 0.26	22.03 ± 0.26	21.43 ± 0.25
x1 = 0.2016	24.19 ± 0.28	23.8 ± 0.27	23.55 ± 0.27	23.17 ± 0.27
x1 = 0.2987	25.71 ± 0.3	25.43 ± 0.29	25.32 ± 0.29	25.07 ± 0.29
x1 = 0.3978	27.89 ± 0.32	27.63 ± 0.32	27.56 ± 0.32	27.34 ± 0.31
x1 = 0.5001	30.59 ± 0.35	30.28 ± 0.35	30.15 ± 0.35	29.91 ± 0.34
x1 = 0.5865	33.12 ± 0.38	32.73 ± 0.38	32.51 ± 0.37	32.21 ± 0.37
x1 = 0.6878	36.16 ± 0.42	35.68 ± 0.41	35.34 ± 0.41	34.96 ± 0.41
x1 = 0.7851	39.08 ± 0.45	38.51 ± 0.45	38.04 ± 0.44	37.59 ± 0.44
x1 = 0.887	42.04 ± 0.49	41.38 ± 0.49	40.81 ± 0.48	40.3 ± 0.47
x1 = 0.945	43.68 ± 0.52	42.99 ± 0.51	42.35 ± 0.5	41.81 ± 0.5
x1 = 1	45.21 ± 0.54	44.48 ± 0.53	43.8 ± 0.52	43.24 ± 0.52

CCCC[n+]1cccc(C)c1.F[B-](F)(F)F [1-butyl-3-methylpyridinium tetrafluoroborate] + CO
surface tension liquid-gas [mN/m]
Conditions	293.15 K	303.15 K	313.15 K	323.15 K
x1 = 0.0489	23.93 ± 0.27	23.18 ± 0.27	22.36 ± 0.26	21.55 ± 0.25
x1 = 0.1011	25.33 ± 0.29	24.62 ± 0.28	23.88 ± 0.27	23.15 ± 0.27
x1 = 0.1984	27.89 ± 0.32	27.26 ± 0.31	26.63 ± 0.3	26.04 ± 0.3
x1 = 0.2961	30.43 ± 0.34	29.87 ± 0.34	29.36 ± 0.33	28.9 ± 0.33
x1 = 0.4021	33.15 ± 0.38	32.66 ± 0.37	32.26 ± 0.37	31.9 ± 0.36
x1 = 0.4935	35.36 ± 0.4	34.89 ± 0.4	34.55 ± 0.39	34.25 ± 0.39
x1 = 0.5892	37.57 ± 0.43	37.12 ± 0.42	36.81 ± 0.42	36.56 ± 0.42
x1 = 0.688	39.67 ± 0.46	39.2 ± 0.45	38.86 ± 0.45	38.62 ± 0.44
x1 = 0.7395	40.72 ± 0.47	40.22 ± 0.46	39.87 ± 0.46	39.6 ± 0.46
x1 = 0.8001	41.87 ± 0.49	41.35 ± 0.48	40.95 ± 0.48	40.65 ± 0.47
x1 = 0.8803	43.3 ± 0.51	42.72 ± 0.5	42.23 ± 0.5	41.86 ± 0.49
x1 = 0.935	44.21 ± 0.52	43.56 ± 0.51	42.99 ± 0.51	42.53 ± 0.5
x1 = 1	45.21 ± 0.54	44.48 ± 0.53	43.8 ± 0.52	43.24 ± 0.52

CCCC[n+]1ccc(C)cc1.F[B-](F)(F)F [1-butyl-4-methylpyridinium tetrafluoroborate] + CCO
surface tension liquid-gas [mN/m]
Conditions	293.15 K	303.15 K	313.15 K	323.15 K
x1 = 0.0497	22.7 ± 0.26	22.02 ± 0.25	21.32 ± 0.25	20.63 ± 0.24
x1 = 0.0993	23.17 ± 0.27	22.6 ± 0.26	22.02 ± 0.26	21.44 ± 0.25
x1 = 0.1995	24.47 ± 0.28	24.08 ± 0.28	23.68 ± 0.27	23.27 ± 0.27
x1 = 0.2946	25.95 ± 0.3	25.68 ± 0.3	25.41 ± 0.29	25.14 ± 0.29
x1 = 0.36	27.2 ± 0.31	26.98 ± 0.31	26.77 ± 0.31	26.55 ± 0.31
x1 = 0.4269	28.57 ± 0.33	28.38 ± 0.33	28.22 ± 0.32	28.04 ± 0.32
x1 = 0.4882	29.99 ± 0.34	29.81 ± 0.34	29.65 ± 0.34	29.49 ± 0.34
x1 = 0.589	32.66 ± 0.38	32.44 ± 0.37	32.25 ± 0.37	32.05 ± 0.37
x1 = 0.7001	35.92 ± 0.42	35.61 ± 0.41	35.34 ± 0.41	35.05 ± 0.41
x1 = 0.7895	38.75 ± 0.45	38.33 ± 0.45	37.95 ± 0.44	37.57 ± 0.44
x1 = 0.8345	40.28 ± 0.47	39.79 ± 0.47	39.35 ± 0.46	38.89 ± 0.46
x1 = 0.8805	41.85 ± 0.49	41.29 ± 0.49	40.77 ± 0.48	40.25 ± 0.47
x1 = 1	45.82 ± 0.54	45.09 ± 0.54	44.41 ± 0.53	43.71 ± 0.52
